From patent US20240269085A1, “CO[…] COMPOUNDS AND PRODUCTION THEREOF” (Esolate Ltd, priority 2019, published 2024)

Assays:
Format in all cases: physicochemical
[1] = Visual solubility in simulated stomach conditions (0.155 M HCl with NaCl, 37° C.)
Description: Bioavailability of the cannabinoid ultrafine nanoparticles obtained as described in Example 4 was assessed by visually evaluating the solubility of the fine nanoparticles in simulated stomach conditions. 0.5 g of NaCl was added to a 0.155 M solution of HCl in water to replicate stomach acidic conditions. 10 mg of the fine nanoparticles, 10 mg of the isolates in crystalline form, and 10 mg of the distillates were each placed in vials containing 10 ml of the acidic solution and incubated for 10 hours at 37° C. At the end of the 10-hour period, only minimal solubility of the preparations was observed. Additional 10 ml of the acidic solution were added, and the mixtures were incubated for 10 more hours at 37° C. At the end of the 20-hour period, the cannabinoid nanoparticles dissolved in the acidic solution.

[2] = Solubility in water
[3] = Relative bioavailability test: HPLC-UV of CBD concentration in water; conditions: after 32 hours elapsed time
Description: Relative bioavailability tests of the cannabinoid ultrafine nanoparticles obtained as described in Example 4 (test samples) as compared to cannabinoid isolates in water (control samples) were performed using a high performance liquid chromatography (HPLC) separator equipped with a UV detector to determine the concentration of CBD in each sample. Control samples were prepared by filtering 1 ml of each sample through a 0.45 μm filter into a 2 ml HPLC vial and 1 ml of methanol (MeOH) was added to each sample vial. HPLC mobile phase was comprised of 65% acetonitrile and 35% water. A flow rate of 1 ml per minute led to the elution of CBD after approximately 4.5 minutes.
A percentage area was measured after 32 hours elapsed time, which represents the amount of CBD in each sample relative to the background signal created by the MeOH in each sample.

## C=C(C)[C@@H]1CCC(C)=C[C@H]1c1c(O)cc(CCCCC)cc1O [CBD isolate, cannabidiol]
[1]; 10 mg in 20 ml, 20 hours at 37° C.
  solubility in acidic solution: complete insolubility
[1]; acidic solvent resembling stomach conditions
  solubility in acid (visual): insoluble
[2]
  solubility in water (visual): insoluble
[3]
  percentage area (amount of CBD relative to MeOH background): 0.7706%
